# Reference: patent US8273738B2, “Imidazole derivatives” (priority 2006, dated 2012)
# How the values were obtained:
# CB2 receptor = molecular target: T1, CB2 receptor (Rattus norvegicus, UniProt Q9QZN9); assay: Cannabinoid CB2 receptor-binding activity ([3H]CP55940 binding experiment), rat spleen membrane specimen
# T1 construct: from tissue; host or cells: rat spleen membrane specimen
# T1 sequence (Q9QZN9 1-360): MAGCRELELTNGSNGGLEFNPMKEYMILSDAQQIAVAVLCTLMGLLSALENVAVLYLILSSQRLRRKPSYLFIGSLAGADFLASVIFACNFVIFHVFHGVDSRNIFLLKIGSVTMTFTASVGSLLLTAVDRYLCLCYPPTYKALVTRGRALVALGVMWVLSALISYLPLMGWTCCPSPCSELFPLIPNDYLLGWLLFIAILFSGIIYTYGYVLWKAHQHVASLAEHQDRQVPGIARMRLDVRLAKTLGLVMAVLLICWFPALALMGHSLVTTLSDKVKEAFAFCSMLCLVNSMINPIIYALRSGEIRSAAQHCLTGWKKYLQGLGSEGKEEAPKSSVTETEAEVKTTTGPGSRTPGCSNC
# Protocol: A test was carried out according to the method of Hillard et al. [The Journal of Pharmacology and Experimental Therapeutics, vol. 289, p. 1427 (1999)]. A rat forebrain membrane specimen and a rat spleen membrane specimen were prepared and used in a binding experiment for a CB1 receptor and a binding experiment for a CB2 receptor, respectively. The membrane specimen (forebrain: final concentration of 0.5 mg of protein/mL, spleen: final concentration of 2 mg of protein/mL) was incubated together with a test compound and [^3H]CP55940 (manufactured by PerkinElmer) ((−)-cis-3-[2-hydroxy-[3,5-^3H]-4-(1,1-dimethylheptyl)phenyl]-trans-4-(3-hydroxypropyl)cyclohexanol)) (final concentration: 0.5 nmol/L) in an assay buffer (50 mmol/L Tris-HCl buffer (pH 7.4), 1 mmol/L EDTA and 3 mmol/L MgCl2) containing 0.1% bovine serum albumin at 25° C. for 1 hour, and the resulting mixture was filtered using a glass filter GF/C (manufactured by Whatman) treated with 1% polyethyleneimine. After the glass filter was washed with the assay buffer containing 0.2% bovine serum albumin, the radioactivity on the glass filter was measured using a liquid scintillation counter (TRI-CARB 2700TR, manufactured by Packard). The binding amount in the presence of 10 μmol/L […] (manufactured by Tocris) ((R)-(+)-[2,3-dihydro-5-methyl-3-(4-morpholinylmethyl)pyrrolo[1,2,3-de]-1,4-benzoxazin-6-yl]-1-naphthalenylmethanone) was considered to be a non-specific binding amount, and a difference between the total binding amount and the non-specific binding amount was considered to be a specific binding amount. The 50% inhibitory concentration (IC50 value) of the test compound against the specific binding was obtained, and the Ki value of the test substance was calculated from the 50% inhibitory concentration and the Kd value of the [^3H]CP55940 binding.
# human CB2 receptor = molecular target: T2, human CB2 receptor (Homo sapiens, UniProt P34972); assay: GTPγS binding experiment via human CB2 receptor (membrane fraction of CHO-K1 cells); format: biochemical; details: for Emax: read-out: Emax value (maximum effect of CP55940 as 100%)
# T2 construct: expressed in transfected cells
# T2 sequence (P34972 whole entry): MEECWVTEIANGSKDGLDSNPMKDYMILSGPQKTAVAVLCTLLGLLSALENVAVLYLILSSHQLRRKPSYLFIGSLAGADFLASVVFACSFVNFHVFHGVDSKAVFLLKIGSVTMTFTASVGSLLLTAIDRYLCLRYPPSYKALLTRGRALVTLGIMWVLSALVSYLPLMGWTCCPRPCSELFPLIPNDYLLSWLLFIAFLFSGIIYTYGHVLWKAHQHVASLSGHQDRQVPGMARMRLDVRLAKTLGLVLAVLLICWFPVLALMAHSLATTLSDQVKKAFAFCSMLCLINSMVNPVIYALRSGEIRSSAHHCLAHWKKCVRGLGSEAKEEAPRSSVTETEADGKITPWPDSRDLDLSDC
# Protocol: A test was carried out according to the method of Hillard et al. [The Journal of Pharmacology and Experimental Therapeutics, vol. 289, p. 1427 (1999)]. As for a membrane specimen, a membrane fraction was prepared from CHO-K1 cells in which a human CB2 receptor [Nature, vol. 365, pp. 61-65 (1993)] was stably expressed and used. The membrane specimen (final concentration: 40 μg of protein/mL) was incubated together with a test compound and [^35S]GTPγS (manufactured by PerkinElmer) (final concentration: 0.05 nmol/L) in an assay buffer (50 mmol/L Tris-HCl buffer (pH 7.4), 100 mmol/L NaCl, 1 mmol/L EDTA, 3 mmol/L MgCl2, and 0.1% bovine serum albumin) containing 20 μmol/L guanosine 5′-diphosphate (GDP) at 30° C. for 1 hour, and the resulting mixture was filtered using a glass filter GF/B (manufactured by Whatman). After the glass filter was washed with the assay buffer, the radioactivity on the glass filter was measured using a liquid scintillation counter (TRI-CARB 2700TR, manufactured by Packard). The binding amount in the presence of 10 μmol/L GTPγS was considered to be a non-specific binding amount, and a difference between the total binding amount and the non-specific binding amount was considered to be a specific binding amount. The ratio of increase in the specific binding amount in the presence of the test compound to the specific binding amount in the absence of the test compound was considered to be an agonistic activity of the test compound. The concentration of the test compound that produces 50% of the maximum effect (EC50 value) was calculated by performing a nonlinear regression analysis using the concentration-response data. The percentage of the maximum effect of the test compound (Emax value) was calculated by considering the maximum effect of CP55940 (manufactured by Tocris) measured at the same time as 100%.
# [1] = test system: rats with chronic constriction nerve injury; assay: Analgesic effect in rats with chronic constriction nerve injury (von Frey filament); format: in vivo, rat; details: oral, dose of 50 mg/kg or less, one hour after administration, von Frey filaments
# Description: Rats with chronic constriction nerve injury were produced by partially modifying the method of Mosconi and Kruger et al. (Pain, vol. 64, pp. 37-57 (1996))
# Male Crl:CD(SD) rats were used for the experiments. Under pentobarbital anesthesia, the sciatic nerve of the left hind limb of the rat was exfoliated, and the exfoliated region was wrapped with a polyethylene tube (trade name: Intramedic, size: PE-60, manufactured by Becton Dickinson and Company) of 2 mm in length. On days 14 to 21 after the surgery, the rats were placed in an acrylic connected cage with a wire mesh floor (900 mm (length)×210 mm (depth)×140 mm (height)) consisting of 4 cages connected in a row and allowed to acclimate to the environment for at least 20 minutes, and then, the pain was evaluated.
# The von Frey filament (trade name: touch test sensory evaluator, Model number: model 58011, manufactured by Muromachi Kikai) was used to evaluate pain, and the results were calculated as a pain threshold. That is, by using a von Frey filament of different stimulus intensity, stimulation was given to the plantar surface of the injured side of rats with chronic constriction nerve injury, and the stimulus intensity to cause paw withdrawal response was obtained. Then, the 50% pain threshold (Paw withdrawal threshold) (g) was calculated by the up down method of Dixon [Annual Review of Pharmacology and Toxicology, vol. 20, pp. 441-462 (1980)].
# In the evaluation of the test compound, rats with 50% pain threshold of less than 4 g were used, and the test compound was dissolved in a 0.5% aqueous methyl cellulose solution and orally administered at a dose of 5 mL/kg. One hour after the administration, the pain threshold was measured using von Frey filaments.
SMILES,Ki (CB2 receptor) [nM],EC50 (human CB2 receptor) [nM],Emax (human CB2 receptor) [%],50% pain threshold (paw withdrawal threshold) [1]
"CN(C(=O)c1cncc(-c2cn(CC3CCOCC3)c(C(C)(C)C)n2)n1)C1CC1 [Compound 205, 6-[2-tert-Butyl-1-(tetrahydropyran-4-ylmethyl)-1H-imidazol-4-yl]-N-cyclopropyl-N-methylpyrazine-2-carboxamide]",< 1000,< 1000,> 30,significantly increased the pain threshold
"CN(CC1CC1)C(=O)c1cncc(-c2cn(CC3CCOCC3)c(C(C)(C)C)n2)n1 [Compound 206, 6-[2-tert-Butyl-1-(tetrahydropyran-4-ylmethyl)-1H-imidazol-4-yl]-N-cyclopropylmethyl-N-methylpyrazine-2-carboxamide]",< 1000,< 1000,> 30,significantly increased the pain threshold
